According to patent US11156599B2, “Assay for telomere length regulators” (The Johns Hopkins University, priority 2015, dated 2021):

Tests used:
[1] = test system: de novo telomere addition on chr4 in SL13 cells; experiment: ADDIT assay (Addition of de novo initiated telomeres): modified STELA PCR and PacBio sequencing; assay type: cell-based, mouse; settings: for de novo telomere addition compared to DMSO control: cells treated with DMSO, KU55933, Olaparib or both drugs
Excerpt: To examine potential mammalian genes that regulate telomere length, an assay was developed that allows visualization of telomere addition in vivo, referred here as ADDIT (Addition of de novo initiated telomeres). In a chromosomally stable CASTEiJ mouse fibroblast cell line, chromosome 4 (chr4) was modified to generate an internal 480 bp telomere ‘seed’ sequence followed by a unique I-Sce1 endonuclease cut site (FIG. 1A). The length of seed sequence was based on an early study showing that 400 bp of telomere repeats can act as functional telomeres. Using Southern blot analysis, two independent HYG-positive clones were identified, clone 1L and 1M, with a single chr4 allele correctly modified (data not shown).
To better visualize the telomere addition on the I-Sce1 cut telomere seed, the single telomere length analysis (STELA) (Baird et al., 2004, Hum Mol Genet 13, 1515-1524), a PCR-based approach that can measure telomere lengths from individual chromosome ends was modified. The STELA assay employs annealing and ligation of a linker, ‘telorette’, with TTAGGG and a unique 20-nucleotide sequence to the G-rich 3′ telomere overhang followed by PCR of the telomere from a ‘teltail’ primer and primer in the HYG sequence on the engineered chromosome (FIG. 2). The PCR product lengths will be proportional to the telomere lengths at the cleaved chr4 allele. As a control, to amplify the un-extended cut chromosome in vitro, a different linker, ‘IScerette’ was designed, which has a 4-nt homology to the 4-nt 3′ overhang created by the I-Sce1 endonuclease at the cleavage site (FIG. 2). […] This in vitro IScerette PCR product serves as a marker for the base line length of the cut, unextended telomere seed sequence.
To further verify the longer STELA PCR products represent de novo telomere addition, the PCR products were sequenced with Pacific Biosciences (PACBIO®) next generation sequencing technology. The PACBIO® platform produces longer reads and is less GC bias compared to other next generation sequencing platforms. While errors were present in the sequence as expected, the telomere repeats were easily recognizable. All of the reads from the PACBIO® were filtered and only those that had unique HYG sequence followed by telomere sequence and the ‘teltail’ primer sequence were examined. This assures that only full length of STELA PCR products were analyzed. The reads were then aligned at the junction between the HYG sequence and the telomere repeats. Wild-type TTAGGG repeats were colored orange and variant telomere repeats were colored in darker orange (FIG. 3A). Some of these variants arose due to errors in sequencing. An error rate similar to the published error rate of PACBIO® sequencing, 10-15% was observed. The errors were uniformly distributed over the reference sequence, dominated by point insertions and deletions, as expected for PACBIO® sequencing. There were three regions of divergent sequence in the original construct that are evident as darker orange stripes in the aligned reads (see for reference, in vitro IScelrette). These are small variation in TTAGGG sequence in the original SL13 clone and serve as useful internal reference points.
The original STELA protocol used for human cells (Baird et al., 2004, Hum Mol Genet 13, 1515-1524) was modified to measure telomere lengths on the de novo end of chr4 in SL13 cells. Briefly, genomic DNA was extracted using Puregene Core Kit A ^TM (Qiagen). 4 μg of genomic DNA was digested with SphI (NEB) and later diluted to 10 ng/μl in water. For the in vitro IScerette sample, genomic DNA was digested with SphI and I-SceI (NEB) prior to ligation. The ligation was carried out at 35° C. for at least 12 hrs in a volume of 10 μl containing 10 ng of digested genomic DNA, 0.9 μM of telorette linkers (mixture of telorette 1 to 6) or IScerette linker and 0.5 U of T4 DNA ligase (NEB) in 1× T4 ligation buffer. […]

SL13 cells = experiment: Telomere length by Southern blot in continuously growing SL13 cells; assay type: cell-based, mouse
Method: Given that ATM inhibitor KU55933 treatment prevents telomere elongation by telomerase overexpression, whether KU55933 treatment shortens telomere lengths in continuously growing cells was tested. […] The distinct non-telomeric bands served as useful loading controls, confirming all lanes were equally loaded (FIG. 9B, pixel position 1 and 3).
Cell lines such as 293FT and HCT116 were grown in DMEM (Gibco) supplemented with 1% Penicillin/Streptomycin/Glutamine (PSG) and 10% heat inactivated FBS (Invitrogen). SL13 cells were grown in DMEM (Gibco) supplemented with 1% PSG and 10% Tet system approved FBS (Clontech, #631107). Final concentration of 2 μg/ml of doxycycline was added in the media to induce I-Sce1 expression. Typically cells were collected post 48 hours of doxcycline treatment. […]
To measure telomere lengths by Southern blot, genomic DNA was extracted from cell pellets collected at different population doublings using the Puregene Core Kit A™ (Qiagen). […] Labeled probe was counted and 10^6 counts/ml (telomere probe) or 10^4 counts/ml (ladder) was denatured at 100° C. for 5 minutes and added to the pre-hybridization solution and hybridized overnight at 65° C. Membranes were washed 3× 15 minutes each in 6× SSC and 1% SDS at 65° C., and 3× 15 minutes each in 1× SSC and 1% SDS at 65° C. and exposed to a phosphorimager screen and detected on a Fuji phosphorimager. […]

| SMILES | de novo telomere addition compared to DMSO control ([1]; different STELA primers) | percentage of reads with telomere elongation ([1]; cells treated with Olaparib or both drugs, different STELA primers) [%] | telomere length at various PDs (SL13 cells; SL13 cells grown in the presence of Olaparib, Southern blot) | addition of de novo telomere repeats beyond the I-Sce1 site ([1]; 48 hrs doxycycline, 10 μM KU55933 or 5 nM siATM) | telomere lengths at various population doublings (SL13 cells; SL13 cells, 10 μM KU55933) |
| --- | --- | --- | --- | --- | --- |
| O=C(c1cc(Cc2n[nH]c(=O)c3ccccc23)ccc1F)N1CCN(C(=O)C2CC2)CC1 [Olaparib] | significantly higher percentage of de novo telomere addition | 22.4 | gradually increased after 25 PDs | – | – |
| O=c1cc(-c2cccc3c2Sc2ccccc2S3)oc(N2CCOCC2)c1 [KU55933] | less de novo telomere addition compared to DMSO control | – | – | fewer and significantly shorter elongation products | gradually shortened with increasing cell PDs |
